Laboratory results reported in patent US7112418B2, “Ion channel” (priority 1995, dated 2006).
Like-named read-outs stand apart in the source and are kept apart here.

What was measured:
[1] = target: mutated SNS sodium channel (SNS mutant) (Rattus norvegicus, UniProt Q62968, S356F); type: cell-based; details: read-out: IC50 (TTX sensitivity restored)
[2] = target: muscle type 1 sodium channel (Rattus norvegicus, UniProt P15390); details: read-out: IC50 (TTX Sensitivity); cited from earlier work
[3] = system: Rat brain iia sodium channel; details: read-out: IC50 (TTX Sensitivity); cited from earlier work
SNS sodium channel = SNS sodium channel (Rattus norvegicus, UniProt Q62968); type: cell-based
Chain of SNS sodium channel (Q62968 other isoform, or with tags, fused parts or gaps with the stated changes): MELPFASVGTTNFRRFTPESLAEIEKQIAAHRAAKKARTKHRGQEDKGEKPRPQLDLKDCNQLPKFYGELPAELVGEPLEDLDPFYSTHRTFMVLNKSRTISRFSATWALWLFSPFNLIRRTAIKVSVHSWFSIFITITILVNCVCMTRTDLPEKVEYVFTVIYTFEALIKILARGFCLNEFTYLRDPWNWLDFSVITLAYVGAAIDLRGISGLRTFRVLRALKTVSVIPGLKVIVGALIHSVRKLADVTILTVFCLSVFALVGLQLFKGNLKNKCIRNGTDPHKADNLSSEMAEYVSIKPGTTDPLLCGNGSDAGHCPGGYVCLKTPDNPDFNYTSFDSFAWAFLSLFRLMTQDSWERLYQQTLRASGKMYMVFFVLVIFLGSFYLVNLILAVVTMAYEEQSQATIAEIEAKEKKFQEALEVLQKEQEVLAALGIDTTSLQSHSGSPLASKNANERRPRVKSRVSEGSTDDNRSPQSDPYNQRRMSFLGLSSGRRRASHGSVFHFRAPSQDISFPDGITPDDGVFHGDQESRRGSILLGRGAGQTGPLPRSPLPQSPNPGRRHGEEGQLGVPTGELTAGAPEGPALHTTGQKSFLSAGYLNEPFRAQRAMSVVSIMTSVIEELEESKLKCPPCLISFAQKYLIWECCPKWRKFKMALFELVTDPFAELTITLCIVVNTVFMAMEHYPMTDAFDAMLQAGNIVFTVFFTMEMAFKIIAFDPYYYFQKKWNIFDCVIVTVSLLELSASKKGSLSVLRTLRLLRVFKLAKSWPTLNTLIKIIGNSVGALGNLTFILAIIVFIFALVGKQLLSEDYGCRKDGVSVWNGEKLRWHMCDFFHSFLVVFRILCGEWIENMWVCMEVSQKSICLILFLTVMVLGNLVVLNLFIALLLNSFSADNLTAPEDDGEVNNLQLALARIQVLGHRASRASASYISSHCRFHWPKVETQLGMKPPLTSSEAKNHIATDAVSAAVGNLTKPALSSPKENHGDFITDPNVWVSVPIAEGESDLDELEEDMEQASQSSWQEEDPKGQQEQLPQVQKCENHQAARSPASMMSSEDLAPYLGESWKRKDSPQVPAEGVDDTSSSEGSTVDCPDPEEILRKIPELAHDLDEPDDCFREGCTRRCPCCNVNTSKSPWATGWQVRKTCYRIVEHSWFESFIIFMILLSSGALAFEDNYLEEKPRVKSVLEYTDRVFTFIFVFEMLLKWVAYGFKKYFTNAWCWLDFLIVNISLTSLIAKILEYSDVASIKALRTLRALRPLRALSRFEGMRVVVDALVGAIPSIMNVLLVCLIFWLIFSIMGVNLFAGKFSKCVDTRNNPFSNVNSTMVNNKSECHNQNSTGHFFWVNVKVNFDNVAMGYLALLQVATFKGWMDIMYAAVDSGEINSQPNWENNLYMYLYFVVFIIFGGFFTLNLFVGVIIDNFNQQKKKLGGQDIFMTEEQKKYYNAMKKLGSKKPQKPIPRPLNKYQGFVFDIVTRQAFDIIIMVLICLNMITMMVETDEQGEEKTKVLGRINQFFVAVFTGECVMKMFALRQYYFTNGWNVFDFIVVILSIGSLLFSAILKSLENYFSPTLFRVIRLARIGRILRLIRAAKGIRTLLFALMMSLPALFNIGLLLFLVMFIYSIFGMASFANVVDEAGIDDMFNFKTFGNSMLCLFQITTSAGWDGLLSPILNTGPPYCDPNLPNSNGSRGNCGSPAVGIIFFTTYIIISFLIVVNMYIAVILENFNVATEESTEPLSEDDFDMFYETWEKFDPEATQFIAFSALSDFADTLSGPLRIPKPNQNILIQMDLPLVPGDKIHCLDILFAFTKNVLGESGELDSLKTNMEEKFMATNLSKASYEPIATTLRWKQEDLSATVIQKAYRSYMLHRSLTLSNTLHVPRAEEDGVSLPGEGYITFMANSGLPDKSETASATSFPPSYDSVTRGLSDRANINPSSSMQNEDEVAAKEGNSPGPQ

[4] = system: DRG sodium channel transcript; test: Northern blot of adult DRG RNA from rats treated with capsaicin as neonates; type: in vivo, rat; details: neonatal rats treated, total adult DRG RNA
Method: Random primed ^32P-labeled DNA Pst-Acc 1 fragment probes (50 ng, specific activity 2×10^9 c.p.m. per μg DNA) from interdomain region 1 (nucleotide position 1,478-1,892) of the SNS sodium channel nucleic acid sequence were used to probe total RNA extracted from tissues.
Total RNA was separated on 1.2% agarose-formaldehyde gels, and capillary blotted onto Hibond-N filters (Amersham). The amounts of RNA on the blot were roughly equivalent, as judged by ethidium bromide staining of ribosomal RNA and by hybridization with the ubiquitously expressed L-27 ribosomal protein transcripts. Filters were prehybridized in 50% formamide, 5×SSC containing 0.5% sodium dodecyl sulfate, 5× Denhardts solution, 100 μg/ml boiled sonicated salmon sperm DNA (average size 300 bp), 10 μg/ml poly-U and 10 μg/ml poly-C at 45° C. for 6 h. After 36 hours hybridization in the same conditions using 10^7 c.p.m. per ml hybridization probe, the filters were briefly washed in 2×SSC at room temperature, then twice with 2×SSC with 0.5% SDS at 68° C. for 15 min, followed by a 20 min wash in 0.5% SDS, 0.2×SSC at 68° C. The filters were autoradiographed overnight or for 4 days on autoradiography film (Kodak X-omat).

[5] = system: DRG sodium channel transcripts; test: RT-PCR of DRG sodium channel transcripts in DRG of neonatal animals treated with capsaicin; type: in vivo, rat; details: 50 mg/kg on 2 consecutive days, DRG isolation 5 days later
Method: (§1) cDNA was synthesized with Superscript reverse transcriptase using oligo dT(12-18) primers and purified on Qiagen 5 tips. Polymerase chain reaction (PCR) was used to amplify cDNA (35 cycles, 94° C., 1 min; 55° C., 1 min; and 72° C., 1 min), and products separated on agarose gels before staining with ethidium bromide. L-27 primers (Ninkina et al. (1983) Nucleic Acids Res. 21, 3175-3182) were added to the PCR reaction 5 cycles after the start of the reaction with the DRG sodium channel specific primers which comprised

[6] = system: DRG sodium channel transcripts; test: RT-PCR of DRG sodium channel transcripts in cultured DRG neurons treated with capsaicin; type: cell-based, rat; details: overnight 10 μM
Method: as §1

Chain of muscle type 1 sodium channel (P15390 whole entry, looked up): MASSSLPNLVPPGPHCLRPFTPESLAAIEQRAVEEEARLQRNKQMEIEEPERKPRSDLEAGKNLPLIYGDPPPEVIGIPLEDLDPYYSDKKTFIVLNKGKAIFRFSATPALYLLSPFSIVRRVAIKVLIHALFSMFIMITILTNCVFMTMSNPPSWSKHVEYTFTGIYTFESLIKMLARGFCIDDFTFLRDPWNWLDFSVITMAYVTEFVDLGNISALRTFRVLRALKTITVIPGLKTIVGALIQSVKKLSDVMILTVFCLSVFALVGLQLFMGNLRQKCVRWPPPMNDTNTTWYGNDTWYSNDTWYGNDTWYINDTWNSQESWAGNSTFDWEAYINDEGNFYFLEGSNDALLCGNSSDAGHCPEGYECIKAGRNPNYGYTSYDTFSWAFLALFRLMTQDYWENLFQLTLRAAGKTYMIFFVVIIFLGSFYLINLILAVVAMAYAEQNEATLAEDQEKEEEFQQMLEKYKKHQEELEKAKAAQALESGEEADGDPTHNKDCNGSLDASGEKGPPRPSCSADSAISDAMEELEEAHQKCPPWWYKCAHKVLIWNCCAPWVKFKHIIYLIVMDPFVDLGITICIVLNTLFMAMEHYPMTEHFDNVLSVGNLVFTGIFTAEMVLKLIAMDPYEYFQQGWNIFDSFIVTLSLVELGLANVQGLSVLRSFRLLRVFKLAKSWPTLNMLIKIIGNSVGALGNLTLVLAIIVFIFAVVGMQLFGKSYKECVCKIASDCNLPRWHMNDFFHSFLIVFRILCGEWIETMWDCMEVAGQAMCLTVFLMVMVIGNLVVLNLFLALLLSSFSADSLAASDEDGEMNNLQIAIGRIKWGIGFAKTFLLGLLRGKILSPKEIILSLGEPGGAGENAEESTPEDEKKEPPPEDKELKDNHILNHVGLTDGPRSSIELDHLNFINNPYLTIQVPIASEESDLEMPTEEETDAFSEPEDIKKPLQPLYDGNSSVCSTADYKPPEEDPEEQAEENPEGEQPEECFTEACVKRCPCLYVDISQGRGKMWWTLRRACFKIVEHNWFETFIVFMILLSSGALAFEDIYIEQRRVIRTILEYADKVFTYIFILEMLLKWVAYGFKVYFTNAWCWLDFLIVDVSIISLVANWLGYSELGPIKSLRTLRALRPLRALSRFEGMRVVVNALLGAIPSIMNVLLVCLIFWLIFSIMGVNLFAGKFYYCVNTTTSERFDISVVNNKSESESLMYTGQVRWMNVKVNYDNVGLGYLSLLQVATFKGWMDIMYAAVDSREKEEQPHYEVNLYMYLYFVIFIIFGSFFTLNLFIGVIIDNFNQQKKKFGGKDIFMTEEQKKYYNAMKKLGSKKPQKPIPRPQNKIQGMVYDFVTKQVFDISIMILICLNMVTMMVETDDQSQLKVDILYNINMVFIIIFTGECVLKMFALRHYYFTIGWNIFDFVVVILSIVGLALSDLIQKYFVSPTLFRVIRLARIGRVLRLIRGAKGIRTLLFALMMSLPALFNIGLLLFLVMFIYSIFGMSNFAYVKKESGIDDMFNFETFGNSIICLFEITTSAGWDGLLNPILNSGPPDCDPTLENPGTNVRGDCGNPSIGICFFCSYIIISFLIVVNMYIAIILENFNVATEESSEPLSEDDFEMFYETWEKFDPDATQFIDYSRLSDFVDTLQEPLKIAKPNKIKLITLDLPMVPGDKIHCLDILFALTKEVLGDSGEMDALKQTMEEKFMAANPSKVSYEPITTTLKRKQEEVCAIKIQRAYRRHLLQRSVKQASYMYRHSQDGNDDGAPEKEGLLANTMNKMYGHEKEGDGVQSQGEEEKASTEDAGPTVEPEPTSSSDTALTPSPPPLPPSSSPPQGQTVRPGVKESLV

NC1=N[C@H](O)[C@H]2[C@H]3O[C@]4(O)O[C@@H]([C@@H](O)[C@@]2(N1)[C@@H]4O)[C@]3(O)CO [TTX, tetrodotoxin]
IC50 [1]: 2.5 nM
IC50 [2]: 40 nM
IC50 [3]: 18 nM
block of the channel (SNS sodium channel): only partially blocked
effect on peak Na+ current (SNS sodium channel): no effect
effect on the channel (SNS sodium channel): unaffected
reduction of peak Na+ current (SNS sodium channel): 19.1±8.3%
reversibility of effect on peak Na+ current (SNS sodium channel): quickly reversible upon washout
IC50 (SNS sodium channel; read-out: IC50 (TTX Sensitivity)): 60000 nM
IC50 (SNS sodium channel; read-out: IC50 (relative insensitivity to TTX)): > 1000 nM
IC50 (SNS sodium channel; read-out: estimated half-maximal inhibitory concentration (IC50)): 59600 ± 10100 nM

COc1cc(CNC(=O)CCCC/C=C/C(C)C)ccc1O [capsaicin]
DRG sodium channel northern blot signal [4]: substantially reduced
DRG sodium channel signal (RT-PCR) compared with controls [5]: significant diminution
DRG sodium channel signal (RT-PCR) compared with controls [6]: significant diminution

CCN(CC)CC(=O)Nc1c(C)cccc1C [lignocaine]
maximum block of peak current (SNS sodium channel): 41.7±5.4%

O=C1NC(=O)C(c2ccccc2)(c2ccccc2)N1 [phenytoin]
effect on peak current (SNS sodium channel; 100 μM, depolarizing pulses from −60 mV to +10 mV, 1 every min): no effect
